As usually defined, the CC50 is the concentration at which the toxic effect on the cells reaches its halfway point. As a reminder, the solubility is the concentration that dissolves in the medium under given conditions.

Results on two compounds are retold here after patent publication US12448388B2, “PRMT5 inhibitors and uses thereof” (Gilead Sciences, Inc., priority 2023, dated 2025).

In series [1] the test system is HCT116 MTAP-deleted cell lines. As to the kind of experiment: Cell viability assay (CellTiter-Glo, 7 days), HCT116 MTAP-deleted. The format is cell-based. The settings on record: for Selectivity: HCT116 WT CC50 versus HCT116 MTAP^del CC50; for plasma-adjusted CC50 (paCC50): * Calculated using Low throughput hEQDS, paCC50 = CC50-HCT116-MTAP^del * (% free CCM/% free human plasma); for CC50: Homo sapiens, HCT116 MTAP-deleted. An outline of the steps:
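Dose-response, PRMT5 inhibitors from DMSO serial dilution, pre-spotted; cells seeded onto compound plates. 7 d, 37 °C/5% CO2/90% RH. Readout: CTG luminescence → CC50.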

A short description of series [2]: Hepatocyte stability assay, human. The class given is in vitro ADME. The settings on record: human hepatocytes, 1 μM. An outline of the steps:
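Cryopreserved hepatocytes (viability ≥85%) incubated with 1 μM compound at 1×10^6 cells/mL in KHB, 37 °C, 95% air/5% CO2, sampled at 0, 1, 3 and 6 h. Parent remaining quantified by LC-MS/MS; half-life from first-order exponential fit (ln2/k), scaled to intrinsic hepatic clearance.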

Series [3] can be described thus: PBS solubility (kinetic solubility from DMSO stocks). As to conditions: 22 °C, aqueous buffer, kinetic from dmso stock; 1x PBS pH 7.4, 1.0% DMSO, 24-hour incubation at ambient temperature. The class given is physicochemical. An outline of the steps: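 Kinetic solubility in 1× PBS pH 7.4 with 1.0% final DMSO, maximum theoretical concentration 100 μM from 10 mM stock. After 24 h at ambient temperature (20.8-24.0 °C) the samples were vacuum-filtered and filtrates quantified by nitrogen detection against a calibration curve. Values were background-corrected and reported in μM and μg/mL.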

Series [4] in a line: Hepatocyte stability assay, cynomolgus monkey. The class given is in vitro ADME. The method, then: BioreclamationIVT (Baltimore, MD) provided the cryopreserved hepatocytes, hepatocyte thawing (HT) medium, and Krebs-Henseleit buffer (KHB) medium. The stock solution concentration was 1 M in DMSO and was then diluted further in acetonitrile/water (1:1 v/v). All other chemicals were purchased from Sigma-Aldrich (St. Louis, MO) or Thermo Fisher Scientific (Waltham, MA).
The quench solution used to stop reactions in the hepatocyte incubations was comprised of 100% (v/v) acetonitrile. Internal Standard/Quench (IS/Q) solution used to stop reactions with the positive control also contained 200 nM Labetalol.
Metabolic Stability in Cryopreserved Hepatocytes: Test compounds, or the positive control metabolic substrate, was incubated in suspensions of cryopreserved hepatocytes at a final concentration of 1 μM. Vials containing cryopreserved hepatocytes were removed from liquid nitrogen and immediately immersed in a 37° C. water bath. The vials were swirled gently until the contents had thawed. They were then immediately emptied into 48 mL of pre-warmed thawing medium in a 50 mL conical tube. Cells remaining in the vial were re-suspended with 1.0 mL of pre-warmed thawing medium and added to the conical tube. The tube was capped and then gently inverted several times to re-suspend the hepatocytes. The cell suspension was centrifuged at 500×g for 10 minutes at room temperature and the supernatant discarded. The cell pellet was loosened by gently swirling the centrifuge tube. Non-supplemented KHB medium was added to obtain the appropriate target cell density. The viabilities of all cell preparations were ≥85%, assessed by Trypan blue dye exclusion.
For incubations, aliquots of hepatocyte suspension (250 μL containing a cell concentration of 2×10^6 cells/mL) were added to 250 μL of 2 μM substrate (test compound or positive control) in supplemented KHB in duplicate wells in a 24-well plate. Final concentration in the incubations were 1×10^6 cells/mL and 1 μM substrate. A cell-free control incubation (KHB only) was also included. The incubations were carried out with gentle shaking in a 37° C. incubator under a humid atmosphere of 95% air/5% CO2 (v/v). Aliquots (100 μL) were removed after 0, 1, 3, and 6 hours and added to 200 μL quenching solution. The samples were then placed on a shaker for 10 min followed by centrifugation at 3000×g for 20 min. The supernatant was transferred to a new plate and diluted with 100 μL of water to reduce the organic content and then placed on a shaker for 10 mins. Samples were injected and analyzed with methods described below.
Liquid Chromatography: Quantification of positive control and test compound was performed by analyte/internal standard peak area ratios (PAR) measured on a Thermo Scientific™ Q Exactive™ Hybrid Quadrupole-Orbitrap Mass Spectrometer MS/MS with an electrospray interface operating in positive ion mode. The mass spectrometer was coupled to a Dionex Ultimate® 3000 HPLC system. Samples (10 μL aliquots) were injected with a Leap Technologies HTC PAL autosampler. For positive control, the column used was a Thermo Scientific™ Hypersil GOLD™ HPLC column ([…], 50×2.1 mm). Mobile phase A consisted of 95% (v/v) water, 5% (v/v) acetonitrile, and contained 0.1% (v/v) formic acid (FA). Mobile phase B consisted of 95% (v/v) acetonitrile, 5% (v/v) water, and contained 0.1% (v/v) FA. Elution was achieved, at a flow rate of 0.5 mL/min, by a series of linear gradients: initial condition was 5% B at 0 min, isocratic for 20 seconds; then linear gradient to 95% B over 90 seconds, followed by isocratic for 60 seconds at 95% B, and re-equilibrated to initial conditions over 70 seconds.
Metabolic stabilities of positive control and test compound were determined by measuring the rates of disappearance of the parent with time by determining the % of parent remaining at time t (Ct) {Obach 1997}.
Data (% of parent remaining) were plotted on a semi-log scale and fitted using an exponential fit: […]

Setting [5] is: HCT-116, 168 h, 7 days of treatment, CTG, read-out: CC50-HCT116-MTAP^del.

Values after ≈ are worked out from the molar mass of the structure shown. Where two headings read alike, the source gives them in different places.

In the case of `C[C@H]1CN(C(=O)c2cc3c(cc2F)nc(N)c2cncn23)[C@H]2c3ccc(C(F)(F)F)cc3C[C@H]2O1` (single isomer, unassigned) [Ff-81], the Selectivity in series [1] came out at 71. The plasma-adjusted CC50 (paCC50) in series [1] (HCT-116) is 591 nM. For the same compound, the CC50 is 19 nM in series [1] (setting [5]) and under 100 nM in series [1] (HCT-116, cell viability, class symbols, read-out: CC50). The “Human Predicted Hepatocyte CL” value in series [2] is 3 mL/min/kg. The compound also had a solubility at 24 h in series [3] of 18.5 µM (≈ 8.98 µg/mL). In addition, in series [4], the “Predicted Hepatocyte CL” value was 2.5 mL/min/kg.
As for `Nc1nc2cnc(C(=O)N3CCC[C@@H]4Oc5cc(C(F)(F)F)cc(F)c5[C@@H]43)cc2n2cncc12` (single isomer, unassigned) [Fg-53], the Selectivity in series [1] is 84. In addition, the plasma-adjusted CC50 (paCC50) in series [1] (HCT-116) was 139 nM. The CC50 is 6 nM in series [1] (setting [5]) and under 100 nM in series [1] (HCT-116, cell viability assay, class symbols, read-out: CC50). For the same compound, the “Human Predicted Hepatocyte CL” value in series [2] was 2.83 mL/min/kg. The solubility at 24 h in series [3] came to 19.9 µM (≈ 9.4 µg/mL). Moreover, in series [4], the “Predicted Hepatocyte CL” value is 3 mL/min/kg.
